The source of these data is US20110053953A1, “AZA-Isoindolones and Their Use as Metabotropic Glutamate Receptor Potentiators - 613” (priority 2007, published 2011).

The target of this test is T1, human mGluR2 (Homo sapiens, UniProt Q14416).
T1 construct: If the GTPgammaS assay was used: nothing is fused
T1 sequence (Q14416 19-819 limits assumed): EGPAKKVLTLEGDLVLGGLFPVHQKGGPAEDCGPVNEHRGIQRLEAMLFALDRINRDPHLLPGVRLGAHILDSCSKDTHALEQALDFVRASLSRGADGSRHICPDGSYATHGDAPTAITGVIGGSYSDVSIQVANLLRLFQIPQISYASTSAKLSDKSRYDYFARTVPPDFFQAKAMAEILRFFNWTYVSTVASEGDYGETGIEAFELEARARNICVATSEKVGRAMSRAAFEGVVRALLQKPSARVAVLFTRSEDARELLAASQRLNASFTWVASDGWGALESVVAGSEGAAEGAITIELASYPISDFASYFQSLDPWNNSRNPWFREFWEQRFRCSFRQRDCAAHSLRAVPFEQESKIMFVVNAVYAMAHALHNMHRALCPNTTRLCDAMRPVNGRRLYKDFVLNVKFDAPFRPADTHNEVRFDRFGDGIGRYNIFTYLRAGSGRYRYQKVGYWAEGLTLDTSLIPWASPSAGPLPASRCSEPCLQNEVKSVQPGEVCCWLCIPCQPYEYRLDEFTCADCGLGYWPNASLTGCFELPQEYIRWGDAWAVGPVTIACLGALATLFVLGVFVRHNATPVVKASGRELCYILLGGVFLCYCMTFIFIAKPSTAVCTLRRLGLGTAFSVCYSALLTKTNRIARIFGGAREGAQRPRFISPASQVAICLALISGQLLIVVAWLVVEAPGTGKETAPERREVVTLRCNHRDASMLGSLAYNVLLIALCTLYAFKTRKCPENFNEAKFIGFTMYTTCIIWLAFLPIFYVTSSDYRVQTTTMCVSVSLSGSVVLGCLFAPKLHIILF
Description: mGluR2 potentiator functional assays (FLIPR calcium mobilization or [35S]-GTPγS binding; not stated which). The class given is cell-based. The settings on record: active in assays described herein; allosteric activator (potentiator) activity at mGluR2, assay not specified. The text has this: The pharmacological properties of the compounds of the invention can be analyzed using standard assays for functional activity. Examples of glutamate receptor assays are well known in the art as described in, for example, Aramori et al., 1992, Neuron, 8:757; Tanabe et al., 1992, Neuron, 8:169; Miller et al., 1995, J. Neuroscience, 15:6103; Balazs, et al., 1997, J. Neurochemistry, 1997, 69:151. The methodology described in these publications is incorporated herein by reference. Conveniently, the compounds of the invention can be studied by means of an assay that measures the mobilization of intracellular calcium, [Ca^2+]i in cells expressing mGluR2.
Fluorometric Imaging Plate Reader (FLIPR) analysis was used to detect allosteric activators of mGluR2 via calcium mobilization. A clonal HEK 293 cell line expressing a chimeric mGluR2/CaR construct comprising the extracellular and transmembrane domains of human mGluR2 and the intracellular domain of the human calcium receptor, fused to the promiscuous chimeric protein G[…]qi5 was used. […]
FLIPR experiments were done using a laser setting of 0.8 W and a 0.4 second CCD camera shutter speed. […] An addition of test compound (0.01 μM to 30 μM in duplicate) was made after 10 seconds of baseline fluorescent readings were recorded on FLIPR. Fluorescent signals were then recorded for an additional 75 seconds at which point a second addition of DCG-IV (0.2 μM) was made and fluorescent signals were recorded for an additional 65 seconds. Fluorescent signals were measured as the peak height of the response within the sample period. Data was analyzed using Assay Explorer, and EC50 and Emax values (relative to maximum DCG-IV effect) were calculated using a four parameter logistic equation.
A [^35S]-GTPγS binding assay was used to functionally assay mGluR2 receptor activation. The allosteric activator activity of compounds at the human mGluR2 receptor were measured using a [^35S]-GTPγS binding assay with membranes prepared from CHO cells which stably express the human mGluR2. […]
Broadly, the EC50 is the concentration at which the effect is half-maximal. Turning to `Cc1nc(-c2cccc(N(S(C)(=O)=O)S(C)(=O)=O)c2)cc2c1C(=O)N(Cc1ccc(OC(F)(F)F)cc1)C2` [Compound 9, 6-(3-dimethylsulphanomidephenyl)-4-methyl-2-[4-(trifluoromethoxy)benzyl]-1,2-dihydro-3H-pyrrolo[3,4-c]pyridin-3-one], the EC50 was found to be 160 nM.

Turning to `Cc1nc(-c2cccc(NS(C)(=O)=O)c2)cc2c1C(=O)N(Cc1ccc(OC(F)(F)F)cc1)C2` [Compound 13, 6-(3-methylsulphanomidephenyl)-4-methyl-2-[4-(trifluoromethoxy)benzyl]-1,2-dihydro-3H-pyrrolo[3,4-c]pyridin-3-one], the half-maximal effective concentration (EC50) worked out at 1330 nM.

For `Cc1nc(-c2cccc(NC=O)c2)cc2c1C(=O)N(CC1CC1)C2` [Compound 20, {3-[2-(cyclopropylmethyl)-4-methyl-3-oxo-2,3-dihydro-1H-pyrrolo[3,4-c]pyridin-6-yl]phenyl}formamide], the concentration giving a half-maximal response (EC50) was 670 nM.
